Source: ChEMBL document CHEMBL5365461, “Degradation of Cyclin-Dependent Kinase 9/Cyclin T1 by Optimized Microtubule-Associated Protein 1 Light Chain 3 Beta-Recruiting Coumarin Analogs” (J Med Chem, 2023)
The source made the active and inactive calls. The calls are words filed in the database; no cut-off is given here.

Tests used:
[1] = Oral bioavailability in CD-1 mouse at 5 mg/kg measured after 24 hrs by LC-MS/MS analysis; format: ADME, organism-based; details: in vivo
[2] = target: Cyclin-dependent kinase 9 (Homo sapiens) (UniProt P50750); test: Induction of CDK9 55 kDa degradation in human U2932 cells at 500 nM incubated for 12 hrs in presence of 5,7-Dihydroxy-4-methylcoumarin by immunoblotting analysis; format: cell-based
[3] = target: Cyclin-dependent kinase 9 (Homo sapiens) (UniProt P50750); test: Induction of CDK9 55 kDa degradation in human U2932 cells at 100 nM by immunoblotting analysis; format: cell-based; details: time 1-24 hrs, TDE = time-dependent effect
[4] = target: Cyclin-dependent kinase 9 (Homo sapiens) (UniProt P50750); test: Induction of CDK9 42 kDa degradation in human U2932 cells at 100 nM by immunoblotting analysis; format: cell-based; details: time 1-24 hrs, TDE = time-dependent effect
[5] = target: Cyclin-dependent kinase 9 (Homo sapiens) (UniProt P50750); test: Induction of CDK9 55 kDa degradation in human U2932 cells at 500 nM incubated for 12 hrs in presence of MLN4924 by immunoblotting analysis; format: cell-based
[6] = tested on: U2932; test: Cytotoxicity against human U2932 cells assessed as inhibition of cell growth measured after 72 hrs by CCK-8 assay; format: functional, cell-based; details: U2932, 72 h
[7] = tested on: HCT-116; test: Cytotoxicity against human HCT-116 cells assessed as inhibition of cell growth measured after 72 hrs by CCK-8 assay; format: functional, cell-based
[8] = target: Cyclin-dependent kinase 9 (Homo sapiens) (UniProt P50750); test: Induction of CDK9 55 kDa degradation in human U2932 cells at 500 nM incubated for 12 hrs in presence of HCQ by immunoblotting analysis; format: cell-based
[9] = target: Cyclin-dependent kinase 9 (Homo sapiens) (UniProt P50750); test: Induction of CDK9 55 kDa degradation in human U2932 cells at 500 nM incubated for 12 hrs in presence of MG132 by immunoblotting analysis; format: cell-based
[10] = Half life in CD-1 mouse at 5 mg/kg, ip measured after 24 hrs by LC-MS/MS analysis; format: ADME, organism-based; details: in vivo
[11] = target: Cyclin-dependent kinase 9 (Homo sapiens) (UniProt P50750); test: Induction of CDK9 55 kDa degradation in human U2932 cells at 500 nM incubated for 12 hrs in presence of SNS-032 by immunoblotting analysis; format: cell-based
[12] = AUC(0 to t) in CD-1 mouse at 5 mg/kg, ip measured after 24 hrs by LC-MS/MS analysis; format: ADME, organism-based; set-up: dose 5 mg/kg, time 24 hrs, route ip; details: in vivo
[13] = tested on: MV4-11; test: Downregulation of Mcl-1 protein level in human MV4-11 cells incubated for 6 hrs by RT-qPCR analysis; format: functional, cell-based; details: dose 10-1000 nM
[14] = tested on: U2932; test: Induction of apoptosis in human U2932 cells assessed as late apoptotic cells at 1000 nM incubated for 24 hrs by AnnexinV-FITC/PI staining based flow cytometry analysis (reference value: 5.95%); format: functional
[15] = tested on: U2932; test: Downregulation of RNAP2 phosphorylation at serine 5 residue in human U2932 cells at 10 to 1000 nM incubated for 6 hrs by immunoblotting analysis; format: functional, cell-based; details: dose 10-1000 nM
[16] = Observed MRTinfinity in CD-1 mouse at 5 mg/kg, ip measured after 24 hrs by LC-MS/MS analysis; format: ADME, organism-based; details: in vivo
[17] = tested on: KP-4; test: Cytotoxicity against human KP-4 cells assessed as inhibition of cell growth measured after 72 hrs by CCK-8 assay; format: functional, cell-based
[18] = Observed MRTinfinity in CD-1 mouse at 1 mg/kg, iv measured after 24 hrs by LC-MS/MS analysis; format: ADME, organism-based; details: in vivo
[19] = tested on: U2932; test: Induction of apoptosis in human U2932 cells assessed as viable cells at 1000 nM incubated for 24 hrs by AnnexinV-FITC/PI staining based flow cytometry analysis (reference value: 86.9%); format: functional; details: read-out: Activity
[20] = tested on: A2780; test: Cytotoxicity against human A2780 cells assessed as inhibition of cell growth measured after 72 hrs by CCK-8 assay; format: functional, cell-based
[21] = tested on: MV4-11; test: Induction of apoptosis in human MV4-11 cells at 1000 nM incubated for 24 hrs by AnnexinV-FITC/PI staining based flow cytometry analysis; format: functional, cell-based
[22] = tested on: U2932; test: Induction of LC3B […] in human U2932 cells at 500 nM incubated for 12 hrs in presence of BafA1 by Co-immunoprecipitation analysis; format: cell-based
[23] = target: Cyclin-dependent kinase 9 (Homo sapiens) (UniProt P50750); test: Induction of CDK9 42 kDa degradation in human U2932 cells at 500 nM incubated for 12 hrs in presence of BafA1 by Co-immunoprecipitation analysis; format: cell-based
[24] = tested on: U2932; test: Downregulation of Mcl-1 protein level in human U2932 cells incubated for 6 hrs by RT-qPCR analysis; format: functional, cell-based; details: dose 10-1000 nM
[25] = target: Cyclin-dependent kinase 9 (Homo sapiens) (UniProt P50750); test: Induction of CDK9 42 kDa degradation in human U2932 cells at 500 nM incubated for 12 hrs in presence of HCQ by immunoblotting analysis; format: cell-based
[26] = target: Cyclin-dependent kinase 9 (Homo sapiens) (UniProt P50750); test: (§1) Inhibition of GST-fused human full-length CDK9 (1 to 372(end) residues)/N-terminal GST-fused His-tagged human full-length CyclinT1 (1 to 726(end) residues) expressed in baculovirus expression system at 100 nM using CDK7/9 tide as substrate incubated for 120 mins in presence of ATP by ADP-Glo Kinase assay relative to control
[27] = Tmax in CD-1 mouse at 5 mg/kg, ip measured after 24 hrs by LC-MS/MS analysis; format: ADME, organism-based; details: in vivo
[28] = tested on: HCT-8; test: Cytotoxicity against human HCT-8 cells assessed as inhibition of cell growth measured after 72 hrs by CCK-8 assay; format: functional, cell-based
[29] = target: Cyclin-dependent kinase 9 (Homo sapiens) (UniProt P50750); test: as §1, with “10” for “100”
[30] = Half life in CD-1 mouse at 1 mg/kg, iv measured after 24 hrs by LC-MS/MS analysis; format: ADME, organism-based; details: in vivo
[31] = tested on: U2932; test: Induction of apoptosis in human U2932 cells assessed as necrotic cells at 1000 nM incubated for 24 hrs by AnnexinV-FITC/PI staining based flow cytometry analysis (reference value: 0.92%); format: functional
[32] = target: Cyclin-dependent kinase 9 (Homo sapiens) (UniProt P50750); test: Induction of CDK9 42 kDa degradation in human U2932 cells assessed as maximal efficacy at 1 to 1000 nM by immunoblotting analysis relative to control; format: cell-based; details: dose 1-1000 nM
[33] = target: Cyclin-dependent kinase 9 (Homo sapiens) (UniProt P50750); test: Induction of CDK9 42 kDa degradation in human U2932 cells at 500 nM incubated for 12 hrs in presence of MLN4924 by immunoblotting analysis; format: cell-based
[34] = Observed clearance in CD-1 mouse at 1 mg/kg, iv measured after 24 hrs by LC-MS/MS analysis; format: ADME, organism-based; details: in vivo
[35] = target: Cyclin-dependent kinase 9 (Homo sapiens) (UniProt P50750); test: Induction of CDK9 degradation in LC3B knockout HEK293T cells at 100 nM incubated for 24 hrs by immunoblotting analysis; format: cell-based
[36] = tested on: U2932; test: Downregulation of RNAP2 phosphorylation at serine 2 residue in human U2932 cells at 10 to 1000 nM incubated for 6 hrs by immunoblotting analysis; format: functional, cell-based; details: dose 10-1000 nM
[37] = AUC(0 to t) in CD-1 mouse at 1 mg/kg, iv measured after 24 hrs by LC-MS/MS analysis; format: ADME, organism-based; set-up: time 24 hrs, dose 1 mg/kg, route iv; details: in vivo
[38] = Volume of distribution at steady state in CD-1 mouse at 1 mg/kg, iv measured after 24 hrs by LC-MS/MS analysis; format: ADME, organism-based; details: in vivo, read-out: Vdss
[39] = target: Cyclin-dependent kinase 9 (Homo sapiens) (UniProt P50750); test: Induction of CDK9 42 kDa degradation in human U2932 cells at 500 nM incubated for 12 hrs in presence of SNS-032 by immunoblotting analysis; format: cell-based
[40] = target: Cyclin-dependent kinase 9 (Homo sapiens) (UniProt P50750); test: Induction of CDK9 42 kDa degradation in human U2932 cells by immunoblotting analysis; format: cell-based; details: dose 1-1000 nM

Cyclin-dependent kinase 9 (Homo sapiens), sequence (P50750 whole entry): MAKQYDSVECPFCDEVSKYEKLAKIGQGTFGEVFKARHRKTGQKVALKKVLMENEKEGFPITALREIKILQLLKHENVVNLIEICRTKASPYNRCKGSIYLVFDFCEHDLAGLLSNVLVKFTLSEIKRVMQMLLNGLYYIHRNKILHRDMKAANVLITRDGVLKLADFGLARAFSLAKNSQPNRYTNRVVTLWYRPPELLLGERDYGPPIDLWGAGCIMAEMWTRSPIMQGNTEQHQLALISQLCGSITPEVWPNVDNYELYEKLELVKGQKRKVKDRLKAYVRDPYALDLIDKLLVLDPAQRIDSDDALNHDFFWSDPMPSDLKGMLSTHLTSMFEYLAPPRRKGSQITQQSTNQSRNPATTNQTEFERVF

bioavailability [1] [%] | Activity [2] | Activity [3] | Activity [4] | Activity [5] | Activity [8] | Activity [9] | half-life [10] [h] | Activity [11] | AUC(0-t) at 24 h [12] [ng·h/mL] | MRT inf [16] [h] | MRT inf [18] [h] | Compound | IC50 [6] [nM] | Activity [7] | Activity [13] | Activity [14] [%] | Activity [15] | Activity [17] | viability at 1 µM [19] [%] | Activity [20] | also measured
43.1 | inactive | Tde | Tde | Active | inactive | Active | 4.66 | inactive | 156 | 4.17 | 0.79 | Cc1cc(=O)oc2cc(O)cc(OCCCCCN3CCC(C(=O)Nc4ncc(SCc5ncc(C(C)(C)C)o5)s4)CC3)c12 | 45 | Active | Dose-Dependent Effect | 40.9 | inactive | Active | 41.8 | Active | Activity [21]: Active; Activity [22]: Active; Activity [23]: Active; Activity [24]: Active; Activity [25]: inactive; inhibition [26]: 54%; Tmax [27]: 0.25 h; Activity [28]: Active; inhibition [29]: 1%; half-life [30]: 1.97 h; Activity [31]: 2.12%; Emax [32]: 59%; Activity [33]: Active; clearance [34]: 229 mL/min/kg; Activity [35]: inactive; Activity [36]: Active; AUC(0-t) at 24 h [37]: 72.3 ng·h/mL; Vd [38]: 10.5 L/kg; Activity [39]: inactive; Activity [40]: Dose-Dependent Effect
24.6 | inactive | Tde | Tde | Active | inactive | Active | 3.61 | inactive | 143 | 3.84 | 0.674 | Cc1cc(=O)oc2cc(OCCCN3CCC(C(=O)Nc4ncc(SCc5ncc(C(C)(C)C)o5)s4)CC3)cc(O)c12 | 45 | Active | Dose-Dependent Effect | 38.7 | inactive | Active | 47.4 | Active | Activity [21]: Active; Activity [22]: Active; Activity [23]: Active; Activity [24]: Active; Activity [25]: inactive; inhibition [26]: 65%; Tmax [27]: 0.25 h; Activity [28]: Active; inhibition [29]: 1%; half-life [30]: 1.03 h; Activity [31]: 2.08%; Emax [32]: 49.9%; Activity [33]: Active; clearance [34]: 140 mL/min/kg; Activity [35]: inactive; Activity [36]: Active; AUC(0-t) at 24 h [37]: 116 ng·h/mL; Vd [38]: 5.7 L/kg; Activity [39]: inactive; Activity [40]: Dose-Dependent Effect
